The source made the active and inactive calls. The rule behind the calls is not given here.

In test [1] the test system is Rattus norvegicus. The test is described as follows: Induction of yawning in Wistar rat at 10 nmol/kg, sc. Type of test: functional, organism-based.
Test [2] concerns Rattus norvegicus. The test is described as follows: Decrease in dopamine release in Wistar rat striatal at 100 nmol/kg, po after 45 mins. Format: functional. On the set-up: scale not given: the % may be the effect or the level left.
The subject of test [3] is Rattus norvegicus. The test is described as follows: Induction of penile grooming in Wistar rat at 10 nmol/kg, sc. Format: functional, organism-based.
Test [4] relates to Rattus norvegicus. The test is described as follows: Induction of locomotor activity in Wistar rat at 10 nmol/kg, sc. Format: functional, organism-based.
The test system of test [5] is Rattus norvegicus. The test is described as follows: Induction of sniffing in Wistar rat at 10 nmol/kg, sc. Format: functional, organism-based.
For test [6], the system named is Rattus norvegicus. The test is described as follows: Decrease in dopamine release in Wistar rat striatal at 10 nmol/kg, sc after 90 mins. Format: functional. More on the design: scale not given: the % may be the effect or the level left.
For test [7], the system named is Rattus norvegicus. The test is described as follows: Decrease in dopamine release in Wistar rat striatal at 1 nmol/kg, sc after 6 hrs. Format: functional. More on the design: scale not given: the % may be the effect or the level left.
For test [8], the target named is D(2) dopamine receptor (Homo sapiens, UniProt P14416). The test is described as follows: Agonist activity at human dopamine D2 receptor expressed in CHO cells assessed as inhibition of forskolin-stimulated cAMP production. Type of test: functional, cell-based. For orientation: Cyclic AMP is a second messenger, typically raised through Gs and lowered through Gi signalling.

The subject of test [9] is Rattus norvegicus. The test is described as follows: Decrease in dopamine release in Wistar rat striatal at 1 nmol/kg, sc after 90 mins. Type of test: functional. On the set-up: scale not given: the % may be the effect or the level left.
Test [10] has as its system Rattus norvegicus. The test is described as follows: Induction of rearing grooming in Wistar rat at 10 nmol/kg, sc. Format: functional, organism-based.
The target of test [11] is D(1A) dopamine receptor (Homo sapiens, UniProt P21728). The test is described as follows: Agonist activity at human recombinant dopamine D1 receptor expressed in CHO cells assessed as stimulation of cAMP production. Format: functional, cell-based.
D(1A) dopamine receptor, sequence (P21728 whole entry): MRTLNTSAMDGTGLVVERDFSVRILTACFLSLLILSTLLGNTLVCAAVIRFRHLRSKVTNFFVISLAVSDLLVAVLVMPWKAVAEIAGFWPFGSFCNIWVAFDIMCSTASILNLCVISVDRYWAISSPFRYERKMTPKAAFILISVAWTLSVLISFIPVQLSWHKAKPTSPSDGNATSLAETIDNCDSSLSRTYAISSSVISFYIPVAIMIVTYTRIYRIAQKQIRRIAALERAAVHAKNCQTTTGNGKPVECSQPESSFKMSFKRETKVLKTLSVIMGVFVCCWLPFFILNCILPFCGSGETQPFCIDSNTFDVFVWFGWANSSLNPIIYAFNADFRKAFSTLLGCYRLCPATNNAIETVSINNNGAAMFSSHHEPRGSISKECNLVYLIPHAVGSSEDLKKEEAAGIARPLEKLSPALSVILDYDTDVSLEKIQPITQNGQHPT

D(2) dopamine receptor, sequence (P14416 whole entry): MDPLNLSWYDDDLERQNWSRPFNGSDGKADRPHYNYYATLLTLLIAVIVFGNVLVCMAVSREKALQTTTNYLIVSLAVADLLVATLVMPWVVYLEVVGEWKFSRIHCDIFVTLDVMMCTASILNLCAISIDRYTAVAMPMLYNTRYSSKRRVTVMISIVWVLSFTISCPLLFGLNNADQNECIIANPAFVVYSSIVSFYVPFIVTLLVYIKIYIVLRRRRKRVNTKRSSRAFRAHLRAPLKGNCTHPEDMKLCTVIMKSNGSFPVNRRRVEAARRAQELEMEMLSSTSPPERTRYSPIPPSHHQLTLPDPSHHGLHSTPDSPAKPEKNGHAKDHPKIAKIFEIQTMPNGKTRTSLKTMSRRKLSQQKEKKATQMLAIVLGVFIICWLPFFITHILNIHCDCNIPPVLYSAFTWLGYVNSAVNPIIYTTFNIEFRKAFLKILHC

For orientation: EC50 means the midpoint of the concentration-response curve. Consider `CCCN1CCC[C@@H]2Cc3c(ccc(O)c3O)C[C@H]21`, for which the result in test [1], in [3], in test [4], in [5] and in test [10] was Active. The Activity was determined as 40% in test [2], 30% in test [6], 30% in test [7] and 20% in test [9]. Further, the EC50 in [8] was 0.65 nM; in test [11], 25 nM.

Source of the values: ChEMBL document CHEMBL1142439 (Bioorg Med Chem, 2008).
